Article PMC4368888, “Preclinical to Clinical Translation of CNS Transporter Occupancy of TD-9855, a Novel Norepinephrine and Serotonin Reuptake Inhibitor” (International Journal of Neuropsychopharmacology, 2015)
Values joined by “and” are separate entries in the source; they are usually repeats but may differ in a detail not shown here. Identical values can stand only once.

Assays:
NET [1] = target: T1, NET (Rattus norvegicus, UniProt Q63380); assay: Ex vivo NET occupancy in rat spinal cord with PK/PD modeling; conditions: estimate (% CV)
T1 construct: from tissue; host or cells: rat lumbar spinal cord after oral dosing
T1 sequence (Q63380 1-617): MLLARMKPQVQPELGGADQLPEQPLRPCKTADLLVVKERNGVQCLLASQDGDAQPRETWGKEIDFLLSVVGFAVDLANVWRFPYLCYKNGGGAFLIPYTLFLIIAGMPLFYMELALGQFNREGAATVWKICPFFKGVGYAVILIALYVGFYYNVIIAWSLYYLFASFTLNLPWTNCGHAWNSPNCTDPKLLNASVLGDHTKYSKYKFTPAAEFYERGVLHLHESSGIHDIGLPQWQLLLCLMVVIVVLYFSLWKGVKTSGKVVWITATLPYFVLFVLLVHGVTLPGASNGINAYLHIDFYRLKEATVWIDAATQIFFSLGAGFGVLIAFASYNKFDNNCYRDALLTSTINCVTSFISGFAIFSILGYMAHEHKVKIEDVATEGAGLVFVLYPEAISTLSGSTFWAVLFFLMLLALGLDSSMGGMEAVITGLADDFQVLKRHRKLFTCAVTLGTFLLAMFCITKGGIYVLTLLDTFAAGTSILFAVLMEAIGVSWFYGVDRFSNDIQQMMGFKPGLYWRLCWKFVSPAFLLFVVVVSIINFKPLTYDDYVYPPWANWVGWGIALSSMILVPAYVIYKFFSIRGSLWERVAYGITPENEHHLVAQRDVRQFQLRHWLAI
Method: TD-9855 Rat Administration and Sampling — Rats (n = 6/timepoint/dose level) received a single oral dose of TD-9855 (0.3, 1, 5, 10, 30, and 60mg/kg) and were euthanized by decapitation at specified time points (0.5, 2, 4, 6, and 8hr for 5mg/kg dose level; 2hr for 0.3, 1, 10, 30, and 60mg/kg dose levels) post-administration. Spinal cords were dissected for ex vivo transporter occupancy and PK assessments from the same animals. The spinal cord was harvested by hydraulic extrusion using phosphate-buffered saline, and the lumbar segment dissected and frozen on dry ice. The remaining spinal cord segments were collected and homogenized in water (25% w/w) for PK analysis. All samples were stored at -80 °C until analysis.
A kinetic radioligand binding assay was used to determine NET and SERT occupancy in rat spinal cord, as described previously ([Bourdet et al., 2012]).
Rat PK/PD Modeling — PK/PD parameters were estimated by a compartmental modeling approach (WinNonlin Version 5.0.1, Pharsight Corporation). One- and two-compartment PK models with first-order absorption and elimination were evaluated. The one-compartment model was selected. The pharmacodynamic model was an effect compartment Emax model linked directly to the central PK compartment (WinNonlin PK Model 3, PD Model 101). Selection of models was based upon best fit in terms of visual inspection, Akaike Information Criteria, and weighted residual sum of squares using the Gauss-Newton minimization method. The following parameters were estimated:
Emax (% occupancy): Maximal SERT or NET occupancy in spinal cord
keo (hr^-1): First-order equilibration rate constant between the central pharmacokinetic compartment and the pharmacodynamic effect compartment

NET [2] = target: NET (Homo sapiens, UniProt P23975); assay: Human PET NET occupancy with [11C]-MRB; type: in vivo; set-up: from tissue; host or cells: brain of healthy male volunteers, in vivo PET
Sequence of NET (Homo sapiens, UniProt P23975) (P23975 whole entry): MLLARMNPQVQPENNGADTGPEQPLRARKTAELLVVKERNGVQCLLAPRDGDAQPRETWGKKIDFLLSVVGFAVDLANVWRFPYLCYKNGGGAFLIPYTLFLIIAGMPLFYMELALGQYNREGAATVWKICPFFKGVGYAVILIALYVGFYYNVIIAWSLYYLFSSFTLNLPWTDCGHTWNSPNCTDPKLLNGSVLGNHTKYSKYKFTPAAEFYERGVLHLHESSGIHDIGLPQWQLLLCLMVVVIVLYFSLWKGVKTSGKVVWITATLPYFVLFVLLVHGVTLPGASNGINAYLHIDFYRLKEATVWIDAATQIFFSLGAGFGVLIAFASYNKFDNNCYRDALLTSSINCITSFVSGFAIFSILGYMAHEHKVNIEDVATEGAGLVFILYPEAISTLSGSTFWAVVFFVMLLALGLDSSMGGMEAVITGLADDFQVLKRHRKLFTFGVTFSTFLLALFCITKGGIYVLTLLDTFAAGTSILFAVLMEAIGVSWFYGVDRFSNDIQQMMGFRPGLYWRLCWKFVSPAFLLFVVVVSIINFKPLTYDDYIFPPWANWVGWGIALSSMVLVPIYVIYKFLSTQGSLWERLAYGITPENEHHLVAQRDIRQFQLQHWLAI
Method: This was a Phase 1, open-label, single-dose study in healthy male volunteers to evaluate NET and SERT occupancy in the human brain after oral administration of TD-9855 using PET.
The study was conducted at the Yale PET Center in accordance with the principles of the International Conference on Harmonisation’s Technical Requirements for Registration of Pharmaceuticals for Human Use Guideline for Good Clinical Practice. The protocol was approved by the Yale University Human Investigation Committee and the Yale–New Haven Hospital Radiation Safety Committee. SERT and NET occupancy were determined using the selective radiotracers [^11C]-DASB ([Meyer et al., 2004]; [Takano et al., 2006]; [Abanades et al., 2011]; [Nogami et al., 2013]) and [^11C]-MRB. Selection of the radiotracers and the dose of TD-9855 were flexible to minimize the number of PET scans.
Eligible subjects were enrolled and received either [^11C]-MRB and/or [^11C]-DASB. Each subject underwent up to 5 PET scans over a period of up to 8 days. Multiple dose levels of TD-9855 (up to 20mg) were explored. All randomized subjects received the NET tracer (single-tracer evaluation) and some subjects (n = 3) received both the NET and SERT tracers sequentially (dual-tracer evaluation) in the baseline and post-dose period. […] In the dual-tracer evaluation, subjects completed sequential [^11C]-DASB and [^11C]-MRB baseline scans with each tracer, sequential post-dose scans with each tracer at 7–10hr post-dose, and one follow-up scan with [^11C]-MRB on or between Days 3 and 7.
The injected dose of both tracers was typically 14–15 mCi, with mass doses less than 10 µg in all cases. PET images were acquired using the High Resolution Research Tomograph (HRRT; Siemens/CTI) with a reconstructed image resolution of approximately 3mm. Following a transmission scan, [^11C]-MRB or [^11C]-DASB was injected intravenously as a 1min bolus by an infusion pump. List-mode data were acquired for 120min. Head motion correction was performed using an optical tracking tool (Vicra, NDI Systems) and a rigid tool attached to a swim cap.
The occipital cortex was selected as the reference region for [^11C]-MRB due to the low density of NET measured in vitro ([Schou et al., 2005]) and the absence of specific binding in a previous study ([Hannestad et al., 2010]). The regions of interest (ROIs) selected to assess [^11C]-MRB specific binding included one cortical region and the paracentral lobule, thalamus, hypothalamus, locus ceruleus, nucleus rubra, and raphe nucleus. The thalamus and cortical ROIs were delineated using the Automated Anatomical Labeling (AAL) template ([Tzourio-Mazoyer et al., 2002]). The hypothalamus, locus ceruleus, nucleus rubra, and raphe nucleus ROIs were drawn on the template MR image, based on the AAL template ([Hannestad et al., 2010]).
For both studies, binding potentials (BP ND) were estimated using a method based on a reference region input curve. For [^11C]-MRB regional BP ND were computed using the multilinear reference tissue model 2 (MRTM2; [Ichise et al., 2003]). The suitability of MRTM2 to estimate [^11C]-MRB BP ND values was evaluated in a previous study ([Hannestad et al., 2010]), in which it was shown that MRTM2 BP ND estimates are highly correlated with BP ND estimated with arterial blood sampling and the multilinear analysis 1 (y = 0.909 x + 0.078, r^2 = 0.821, where x represents the MA1 BP ND values and y represents the MRTM2 BP ND values). BP ND values and their associated standard errors ( SEBPND ) for each ROI were then estimated by performing fits of the regional TACs. Data were fitted starting at time t* = 20min. For [^11C]-DASB, regional BP ND values were computed using simplified reference tissue model 2 (SRTM2; [Wu and Carson, 2002]). SRTM2 is similar to MRTM2, except that it uses the full data set, while MRTM2 uses the period of time t > t*. When applied to single-voxel TACs, these fits provided the BP ND images. […]

[3] = 4 mg single oral dose, individual subjects, rApp ± SE
[4] = 10 mg single oral dose, individual subject, rApp ± SE
[5] = 20 mg single oral dose, individual subject, rApp ± SE
[6] = 20 mg single oral dose, individual subjects, rApp ± SE

Fc1cc(F)c(OCc2ccccc2C2CCNCC2)c(F)c1 [TD-9855, 4-[2-(2,4,6-trifluorophenoxymethyl)phenyl]piperidine]
Emax (% Occupancy), NET (NET [1]; rat spinal cord, oral 0.3-60mg/kg): 92.0 (19) % Occupancy
EC50 (NET [1]; rat spinal cord, plasma EC50): 0.0364 µM
keo, NET (NET [1]; rat, equilibration rate constant plasma to effect compartment): 1.78 (57) hr^-1
Apparent NET Occupancy Day 7 (NET [2]; 4 mg single oral dose, individual subject, rApp ± SE): 3.2±7.8%
Apparent NET Occupancy Day 1 (NET [2]; [3]): 57.9±4.7% and 58.7±5.5% and 42.2±6.4%
Apparent NET Occupancy Day 3 (NET [2]; [3]): 57.3±3.8% and 47.2±6.0% and 29.6±7.1%
Apparent NET Occupancy Day 1 (NET [2]; [4]): 110.3±7.4%
Apparent NET Occupancy Day 3 (NET [2]; [4]): 92.0±10.8%
Apparent NET Occupancy Day 6 (NET [2]; [5]): 62.9±5.0%
Apparent NET Occupancy Day 7 (NET [2]; [5]): 2.6±11.6%
Apparent NET Occupancy Day 1 (NET [2]; [6]): 120.3±6.2% and 98.4±4.7% and 119.1±8.3% and 121.2±4.5%
Apparent NET Occupancy Day 3 (NET [2]; [6]): 96.2±10.2% and 124.3±4.9%
EC50 (NET [2]; human brain PET, single oral 4-20mg, fit ± standard error, read-out: plasma EC50 for NET occupancy (converted)): 0.00377 µM
